The term melting point denotes the temperature, or range, at which the solid turns liquid.

In the case of `CC(C)(C)c1cc(/C=C(\C#N)C(N)=S)cc(C(C)(C)C)c1O`, the melting point was found to be 210 °C.

Compound `CC(C)(CO)C1CCN(CC#Cc2cc(C(F)(F)F)cc(C(F)(F)F)c2)CC1` displayed a melting point of 85 to 87 °C.

Regarding `COc1cccc([C@H]2O[C@H](CC(=O)Nc3nc(C)c(C(=O)O)s3)C(=O)N(CC(C)(C)CO)c3ccc(Cl)cc32)c1OC`, the melting point fell in the range of 251 to 252 °C.

Consider `N#Cc1ccc(CC(=O)c2c(O)c3cccnc3n(-c3ccccc3)c2=O)cc1`, for which the melting point lay within 227 to 230 °C.

In the case of `CC(C)(C)c1cc(/C=C/c2nnc(N)o2)cc(C(C)(C)C)c1O`, the melting point came to 221 °C.

`N#CSc1cc([N+](=O)[O-])ccc1Cl` yielded a melting point of 103 °C.

Consider `O=C(c1cc(-c2ccccc2)c(=O)n2c1-c1ccccc1CN2)N1CCOCC1`, for which the melting point was 254 to 257 °C.

In the case of `Cc1ccc(NC(=O)Nc2ccc(N(CCCl)CCCl)cc2)cc1Nc1c2cccc(C)c2nc2c(C(=O)NCCN(C)C)cccc12`, the melting point was 286 to 289 °C.

`CC(=O)N1CC(=O)N(CC(N)=O)C1(C)C` yielded a melting point of 188 to 189 °C.

The compound `Nc1n[nH]c2ccc(Cl)cc12` yielded a melting point of 162 to 163 °C.

In the case of `CCO[C@@H]1[C@@H](OC)[C@H](C)O[C@@H](OC(=O)N(C(=O)CCC(=O)OC)c2ccc(-c3ncn(-c4ccc(OC(F)(F)C(F)(F)F)cc4)n3)cc2)[C@@H]1OC`, the melting point lay within 72 to 76 °C.

The compound `FC(F)(F)Sc1ccc(C(F)(F)F)cc1` came in with a melting point of 30 to 31 °C.

`CC(C)(C)NS(=O)(=O)c1cc(C(=O)Cl)ccc1Cl`: the melting point came out at 97 °C.

As to `N#CCOc1nsc2ccc([N+](=O)[O-])cc12`, the melting point fell in the range of 123 to 124 °C.

Compound `Cc1ccc(-c2cc(C(=O)O)c(=O)n(CC(C)C)n2)cc1F` had a melting point of 159 to 160 °C.

`CCCNC(=O)N(Cc1ccc(C)cc1)NC(=O)OC(C)(C)C` registered a melting point of 87.8 to 89.4 °C.

For the compound `CON1C=C2N=NC3=C(N2C1)N(c1ccccn1)CC(C1CC1)=C3`, the melting point is 162 to 164 °C.

`COc1cc(C(=O)CC(=O)C(C)(C)C)cc(OC)c1OC` displayed a melting point of 67.3 to 68.4 °C.

As to `CCOP(=O)(OCC)C(O)c1cccc([N+](=O)[O-])c1` (stereo not given), the melting point was 93 to 95 °C.

`Cc1cccc(C)c1CCC(CCc1c[nH]cn1)CCc1c(C)cccc1C` had a melting point of 147 to 150 °C.

`COC(=O)c1ccc2cc(CCCc3cc4ccc(C(=O)OC)cc4o3)oc2c1` came in with a melting point of 100 to 101 °C.

In the case of `O[C@@H]1CNCC[C@H]1Oc1ccc2c(c1)CCCC2` (relative stereo), the melting point was 125 to 127 °C.

`Cc1c(SCCCSc2ccc3ncc([N+](=O)[O-])n3n2)ccnc1CSc1ncccn1` came in with a melting point of 143 to 147 °C.

As to `CNC(=O)n1nc(Oc2ccc(C(F)(F)F)cc2[N+](=O)[O-])c(C)c1C`, the melting point was in the range of 117 to 119 °C.

`O=c1[nH]nc2n1-c1ccc(Cl)nc1C(c1ccccc1)=[N+]([O-])C2`: the melting point lay within 268 to 270 °C.

`COc1ccc(N2CCOCC2)c2sc(C(=O)NCC(=O)Cc3cccs3)nc12` gave a melting point of 165 °C.

With `COCc1nc2c(N)nc3cc(OCc4ccccc4)ccc3c2n1CCc1ccccc1`, the melting point was in the range of 195 to 197 °C.

As to `Nc1cc(F)ccc1C(=O)Oc1ccccc1`, the melting point is 69 to 70 °C.

The compound `CCCC(C1CCCCC1)n1c(C(=O)OC)cnc1S` (stereo not given) showed a melting point of 181 °C.

For `COc1ccc(F)cc1C(C)(C)CC(=O)C(=O)O`, the melting point lay within 58 to 60 °C.

`O=c1[nH]c2ccccc2c(=O)n1CCN1CCC(C(O)c2ccc(F)cc2)CC1` (stereo not given) returned a melting point of 213 °C.

The compound `CC(C)c1cccc(C(C)C)c1NC(=S)NC(C)(C)C(C)(C)C` displayed a melting point of 161 to 162 °C.

Regarding `CCOC(=O)C1=C(C)NC(C)=C(C#N)C1c1cccc2c1SC(c1ccccc1)=CC2` (stereo not given), the melting point is 206 to 207 °C.

Compound `OCCn1cc(-c2ccccc2)c(OCc2ccccc2)n1` yielded a melting point of 115 °C.

In the case of `COC(=O)c1cc(Cl)c(N)c2c1OCCCN2`, the melting point lay in the range of 92 to 95 °C.

In turn, `CCCc1nc2c(N)nc3cccnc3c2s1` displayed a melting point of 135 to 136 °C.

As for `CCC1C(C)=NN=C(c2ccc(OC)cc2)c2cc(OC)c(OC)cc21` (stereo not given), the melting point is 157 to 159 °C.

The compound `O=C(O)CCCCCCNS(=O)(=O)c1ccccc1` gave a melting point of 75 to 77 °C.

For `COc1cc(C)c(C(=O)c2c(OC)ncc(Br)c2Cl)c(OC)c1OC`, the melting point lay in the range of 84 to 87 °C.

Take `C=CC[C@](N)(Cc1ccccc1)C(=O)O`: the melting point fell in the range of 158 to 159 °C.

Compound `CCN(CC)CCCCC(=O)c1cccc2cc3c(C(=O)CCCCN(CC)CC)cccc3cc12` yielded a melting point of 65 to 67 °C.

Compound `Cn1c([N+](=O)[O-])cnc1-c1nnc2cccnn12` registered a melting point of 235 to 237 °C.

As for `COc1nc(NC(=O)NS(=O)(=O)c2ccccc2OC(F)F)nc(N(C)C)n1`, the melting point lay within 171 to 172 °C.

With `CCOC(=O)c1cn(Cc2ccc(Oc3ccccc3)cc2)nc1OCc1ccc(OCc2nc(-c3ccco3)oc2C)c(OC)c1`, the melting point was 98 to 99 °C.

`CC(C)CC(=O)Nc1ccccc1` yielded a melting point of 67 to 68 °C.

Compound `Nc1nn(-c2ccccc2)c(N)c1CN1CCN(c2cccc3c2OCCO3)CC1` had a melting point of 84 to 87 °C.

On to `O=C(NCc1ccccc1[N+](=O)[O-])C1Cc2ccccc2N1S(=O)(=O)c1ccc(-c2ccc(F)cc2F)cc1` (stereo not given), for which the melting point is 99 to 102 °C.

Consider `CCC[C@H](NC(=O)Cc1cc(C)sc1C)C(=O)Nc1ncc(-c2ccccc2COCC)s1`, for which the melting point is 84 °C.

In turn, `O=C1CCCC(=O)C1C(=O)c1ccc(OC(F)F)cc1Cl` displayed a melting point of 68 to 72 °C.

Take `Cc1nc(Cl)c2sccc2n1`: the melting point is 82 to 84 °C.

In turn, `COc1ccc(CSc2nc(NC(CO)CO)c3ncc(=O)[nH]c3n2)cc1Cl` came in with a melting point of 209 to 211 °C.

Take `N=C(N)c1ccc(Cl)cc1`: the melting point fell in the range of 266 to 268 °C.

`Oc1ccc2c(c1O)C(Cc1ccnc3ccccc13)c1ccccc1-2` (stereo not given) yielded a melting point of 244 to 246 °C.

`Oc1c(F)cc(Cn2cc[nH]c2=S)cc1F` yielded a melting point of 188 °C.

`CCc1cc(CC)c2ccc(=O)[nH]c2n1`: the melting point fell in the range of 159 to 161 °C.

Regarding `COC(=O)c1ccc(SC)nc1OC`, the melting point was 71 to 75 °C.

As for `COC(=O)c1cccc(OCCCOc2cc3c(cc2O)CCO3)c1`, the melting point came out at 93 °C.

Take `COc1nc(N)c2ncn(C3OC(CO)C(O)C3O)c2n1` (stereo not given): the melting point lay within 191 to 192 °C.

The compound `CC1(C)CCC(=O)Nc2cc(Nc3ncc(Cl)c(Nc4ccc(N5CCOCC5)cc4OCCC#N)n3)ccc21` gave a melting point of 150 to 156 °C.

In the case of `CCOC(=O)CC[C@H](NC(=O)c1ccc([N+](=O)[O-])cc1Cl)C(=O)OCC`, the melting point lay within 95 to 96 °C.

`CCS(=O)(=O)N1CCNC1=O` showed a melting point of 114 to 116 °C.

The compound `CCOC(=O)C1Cc2ccccc2N1C(=O)C(C)Br` (stereo not given) showed a melting point of 101 to 103 °C.

Compound `COc1cc(OC)cc(-c2nc(C)nn2-c2ccc(S(N)(=O)=O)cn2)c1` registered a melting point of 195 to 196 °C.

For the compound `COC(=O)C(C)Oc1cc(Cl)ccc1CO` (stereo not given), the melting point was 51 to 52 °C.

In turn, `O=C1C(=O)c2ccccc2C2=C1SCC1(CCCNC1)O2` (stereo not given) registered a melting point of 128 to 134 °C.

In turn, `Cc1cc(-c2[nH]nc3c2C(=O)c2c(NC(=O)NN4CCN(C)CC4)cccc2-3)c(C)s1` showed a melting point of 250 °C.

Compound `CC(=O)Oc1ccc(C(CC(=O)O)CC(=O)OCC(=O)C2CCC3C4CCC5=CC(=O)CCC5(C)C4C4CC23C(O)O4)cc1` (stereo not given) had a melting point of 145 to 160 °C.

In turn, `O=C1N(CC2CCCCO2)c2ccccc2C12COc1cc3c(cc12)OCCO3` (stereo not given) showed a melting point of 158 to 166 °C.

`O=[N+]([O-])c1c(Cl)nc2ccccc2c1NCc1ccccn1` showed a melting point of 179 to 182 °C.

Consider `Cc1ccc2c(ccn2C)c1O`, for which the melting point turned out to be 68 °C.

`Cc1ccc(-c2c(Cl)ncnc2NS(=O)(=O)c2ccc(C(C)(C)CO)cc2)cc1` returned a melting point of 227 to 228 °C.

`FC(F)(F)c1ccc(-c2cnn(-c3cccnc3)c2)cn1`: the melting point was in the range of 203 to 204 °C.

For the compound `CCCCc1nc2c(N)nc3cccnc3c2n1CCCCNC(=O)OC(C)(C)C`, the melting point was 148 to 150 °C.

For `O=c1nc(NCCCCc2ncccc2Cl)[nH]cc1C(O)c1ccncc1` (stereo not given), the melting point was determined as 90 °C.

`CCOC(=O)c1oc(Cl)nc1C` registered a melting point of 55 to 58 °C.

The compound `O=C1c2ccccc2C(=O)N1Cc1ccc(I)cc1` registered a melting point of 138 to 139 °C.

Consider `Cc1cc(-n2c(C)ccc2-c2ccc(S(C)(=O)=O)c(F)c2)ccc1-c1cscn1`, for which the melting point lay in the range of 179 to 181 °C.

For `CCOc1c(Cl)cc([N+](=O)[O-])c(OCC)c1[N+](=O)[O-]`, the melting point is 78 °C.

Compound `COC(=O)c1ccc(-c2ccc(C(CC3CCOCC3)c3ccc(S(=O)(=O)C4CC4)cc3)[nH]2)nc1` (stereo not given) yielded a melting point of 150 to 152 °C.

For the compound `Cc1c(C)c2c(c(C)c1O)SC(CCCO)O2` (stereo not given), the melting point was 116 to 117 °C.

`CCCCc1oc2cc(Br)ccc2c1CC1(c2ccc(OC)cc2)OCN=C1Br` (stereo not given) registered a melting point of 93 to 95 °C.

Turning to `CCCCCCCCCCCC1Cc2cc(C(=O)O)ccc2N1` (racemic), the melting point is 99 to 103 °C.

Take `COc1ccc(C=C2c3ccccc3C(=NOCC(=O)O)c3ccccc32)cc1O`: the melting point is 232 to 234 °C.

`ClCc1coc(-c2cc3c(s2)CCCC3)n1`: the melting point lay within 102 to 103 °C.

The compound `FC(F)(F)c1ccc2c(c1)N(CC1CN3CCC1CC3)c1ccccc1S2` (stereo not given) gave a melting point of 150 °C.

The compound `CCOC(=O)c1cn(C2CC2)c2nc3c(F)c(F)c(F)cc3cc2c1=O` showed a melting point of 260 °C.

As to `CCCCC(NC(=O)OCc1ccccc1)P(C)(=O)O` (stereo not given), the melting point lay in the range of 134 to 135 °C.

In turn, `NC(=O)CC[C@H]1CN(c2ccc(C(=O)c3cnc4ccc(C(F)(F)F)cn34)cc2)C(=O)O1` showed a melting point of 243 to 245 °C.

Compound `CCCCOCC(O)CN1C(=O)NC(=O)C(CC)(c2ccccc2)C1=O` (stereo not given) had a melting point of 92 °C.

The compound `N#CC(=NOC(=O)OCc1ccccc1)c1ccccc1` yielded a melting point of 73 to 75 °C.

(Values after a melting point compilation (Tetko et al.; mined from patent text by program, amines drawn as free bases though some values may be those of a salt).)
